The numbers were not newly measured in patent US20240299293A1 (priority 2020, published 2024), which cites them from elsewhere.

The data set deals with human coronaviruses, including CoV-229E and SARS-COV, and animal coronaviruses. The note with it: for elimination of coronaviruses: hexachlorophene, 2% glutaraldehyde, 1% povidone-iodine, benzalkonium chloride, chlorhexidine.

As to `OCl` [sodium hypochlorite], the susceptibility of coronaviruses result (6% sodium hypochlorite solutions) is given as “variable”. With povidone-iodine, the elimination of coronaviruses result is “satisfactory elimination rates”. Turning to benzalkonium chloride, the elimination of coronaviruses result is recorded as “only if 70% ethanol is present in the solution”. For the molecule `Oc1c(Cl)cc(Cl)c(Cl)c1Cc1c(O)c(Cl)cc(Cl)c1Cl` [hexachlorophene], the elimination of coronaviruses entry is “satisfactory elimination rates”. `O=CCCCC=O` [glutaraldehyde]: the elimination of coronaviruses entry was “satisfactory elimination rates”.

For the molecule `CCO` [ethanol], the reduction of viability result (70% ethanol, viruses in suspension and dried on surfaces, within seconds) was “greater than 3 log”. For `[H]/N=C(\N/C(=N/[H])NCCCCCCNC(=N)NC(=N)Nc1ccc(Cl)cc1)Nc1ccc(Cl)cc1` [chlorhexidine], the elimination of coronaviruses entry is “only if 70% ethanol is present in the solution”.
